Reference: patent US20120149766A1, “DIETARY AND PHARMACEUTICAL COMPOSITIONS COMPRISING A SAGE EXTRACT CONTAINING A MIXTURE OF TRICYCLIC […] THEIR DERIVATIVES AND THEIR USES” (DSM IP ASSETS B.V., priority 2006, published 2012)
Where two headings read alike, the source gives them in different places.

Legend:
mouse [1] = test: Light-dark box test in the mouse; type: in vivo
Description: The method, which detects anxiolytic activity, follows that described by Crawley (1981, Pharmacol. Biochem. Behav., 15:695-699). Anxiolytics increase the time spent in the light compartment.
Animals were placed in the light compartment of a two-compartment box with one half light and open (25×27×27 cm) and the other half dark and closed (20×27×27 cm). The time spent in each compartment as well as the number of times the animal crossed from one side to the other was scored during a 3-min test. 15 mice were studied per group. The test was performed blind.
Clobazam (32 mg/kg p.o., dispersed in 0.2% w/v hydroxypropylmethyl cellulose in distilled water), administered 1 h before the test, was used as reference substance. Mice in this group received additional administrations of vehicle at 24 h and 5 h before the test in order to maintain experimental blinding.

mouse [2] = details: for Number of marbles covered by sawdust, mean ± s.e.m.: 30-min test
Procedure: Mice (n=15 per treatment group) were individually placed in transparent plastic cages (33×21×18 cm) with 5 cm of sawdust on the floor and 25 marbles (diameter 1 cm) grouped in the centre of the cage. A second, up-turned, cage served as a lid. The number of marbles covered by sawdust (by at least two-thirds) was counted at the end of the 30-min test period. Tests were performed by investigators blind to the drug treatment protocol.
Prior to testing, all test cages and marbles were “impregnated” by leaving 10 naive mice in each cage for 15 minutes.
Sage extract B (30, 100, 300 mg/kg, p.o., 24, 5 and 1 h prior to the test) was thus investigated in the marble burying test to evaluate its potential anxiolytic effects in the mouse. Clobazam, fluoxetine and venlafaxine were used as reference compounds.

[3] = 32 mg/kg p.o. −1 h (vehicle at −24 h, −5 h)
[4] = 32 mg/kg p.o. −1 h (vehicle at −24 h, −5 h), 3-min test
[5] = 32 mg/kg p.o. −1 h (vehicle at −24 h and −5 h)
[6] = 24 mg/kg p.o. −24 h, −5 h and −1 h
[7] = 10 mg/kg p.o. −24 h, −5 h and −1 h

SMILES: CN1C(=O)CC(=O)N(c2ccccc2)c2cc(Cl)ccc21 [Clobazam, clobazam]
- Number of crossings, % change from control (mouse [1]; [3]): +6%
- Time spent in light compartment, % change from control (mouse [1]; [3]): +75%
- Number of crossings, mean ± s.e.m. (mouse [1]; [4]): 11.9 ± 1.8 NS
- Time spent in light compartment, mean ± s.e.m. (mouse [1]; [4]): 125.5 ± 6.4 s
- Sedation (animals/group) (mouse [1]; 32 mg/kg p.o., mouse): 2/15
- Number of marbles covered by sawdust, % change from control (mouse [2]; [5]): −84%
- Number of marbles covered by sawdust, mean ± s.e.m. (mouse [2]; [5]): 2.9 ± 1.2

SMILES: COc1ccc(C(CN(C)C)C2(O)CCCCC2)cc1 (stereo not shown) [Venlafaxine, venlafaxine]
- Number of marbles covered by sawdust, % change from control (mouse [2]; [6]): −47%
- Number of marbles covered by sawdust, mean ± s.e.m. (mouse [2]; [6]): 9.5 ± 1.8
- Dead after the first administration (animals/group) (mouse [2]; 24 mg/kg p.o., mouse): #dead after the first administration ( 1/15) and after the second administration ( 1/15).
- Dead after the second administration (animals/group) (mouse [2]; 24 mg/kg p.o., mouse): #dead after the first administration ( 1/15) and after the second administration ( 1/15).

SMILES: CNCCC(Oc1ccc(C(F)(F)F)cc1)c1ccccc1 (stereo not shown) [Fluoxetine, fluoxetine]
- Number of marbles covered by sawdust, % change from control (mouse [2]; [7]): −58%
- Number of marbles covered by sawdust, mean ± s.e.m. (mouse [2]; [7]): 7.6 ± 1.6
